Here are results for three molecules from publication PMC12119672, “Development and evaluation of [^11C]DPA-813 and [^18F]DPA-814: novel TSPO PET tracers insensitive to human single nucleotide polymorphism rs6971” (European Journal of Nuclear Medicine and Molecular Imaging, 2025).

Series [1] relates to Central Benzodiazepine Receptor. Nature of the series: Off-target screen, 10 µM single dose (Eurofins). Further details: species or system human. The settings on record: n = 2, inhibition of agonist radioligand binding. The protocol:
(§1) Binding affinities (Ki) to wild-type (WT) and A147T human TSPO were assessed using a previously published method. HEK-293T cells were stably transfected with WT and A147T TSPO. Membranes were isolated from each cell line using an Ultra-Turrax hand-held homogeniser. These cells have been previously validated as an in vitro model for low- and high-affinity TSPO binding. […] Non-specific binding was determined using a saturating concentration (1 µM) of non-tritiated PK 11195. This non-specific binding contributed less than 10% of total binding. Reactions were halted by filtering through a 96-well glass-fibre filter plate (Millipore), followed by eight washes with ice-cold 50 mM Tris HCl. Microscint 0 was added to the plate and resultant radioactivity-related photons were collected by a Microbeta 2450 (PerkinElmer). Ki values were fit to a competition binding curve fit on non-specific binding-corrected data using GraphPad Prism 10.0 (GraphPad). […] Binding affinities (Ki) to rat TSPO were measured in duplicate by Eurofins Panlabs Discovery Services (assay #226700) (Supplementary Fig. 12). […]
(§2) Supplementary Table 5. […] 10 μM single dose (n = 2) screen performed by Eurofins Panlabs Discovery. ^a All targets are human receptors. ^b Inhibition of antagonist radioligand binding. ^c Inhibition of agonist radioligand binding. ^d Enzymatic functional readout.

In another series the target is T1, SERT (Homo sapiens, UniProt P31645).
T1 construct: purchased Eurofins Panlabs Discovery Services
Briefly: Off-target screen, 10 µM single dose (Eurofins). The settings on record: read-out: % Binding Inhibition at 10 μM, SERT. The protocol:
(§3) Binding affinities (Ki) to wild-type (WT) and A147T human TSPO were assessed using a previously published method. HEK-293T cells were stably transfected with WT and A147T TSPO. Membranes were isolated from each cell line using an Ultra-Turrax hand-held homogeniser. These cells have been previously validated as an in vitro model for low- and high-affinity TSPO binding. […] Non-specific binding was determined using a saturating concentration (1 µM) of non-tritiated PK 11195. This non-specific binding contributed less than 10% of total binding. Reactions were halted by filtering through a 96-well glass-fibre filter plate (Millipore), followed by eight washes with ice-cold 50 mM Tris HCl. Microscint 0 was added to the plate and resultant radioactivity-related photons were collected by a Microbeta 2450 (PerkinElmer). Ki values were fit to a competition binding curve fit on non-specific binding-corrected data using GraphPad Prism 10.0 (GraphPad). Results are presented as mean ± standard error of the mean (SEM) from at least three independent experiments. Binding affinities (Ki) to rat TSPO were measured in duplicate by Eurofins Panlabs Discovery Services (assay #226700) (Supplementary Fig. 12). Single-dose (10 µM) off-target in vitro screening was performed in duplicate by Eurofins Panlabs Discovery Services (Supplementary Table 5).
(§4) Supplementary Table 5. Off-target binding to common CNS targets. 10 μM single dose (n = 2) screen performed by Eurofins Panlabs Discovery. ^a All targets are human receptors. ^b Inhibition of antagonist radioligand binding. ^c Inhibition of agonist radioligand binding. ^d Enzymatic functional readout.

Another series concerns the target T2, β2 Adrenergic receptor (Homo sapiens, UniProt P07550).
T2 construct: purchased Eurofins Panlabs Discovery Services
Briefly: Off-target screen, 10 µM single dose (Eurofins). The settings on record: read-out: % Binding Inhibition at 10 μM, β2 Adrenergic receptor. The protocol:
as §3, §4

The target in a further series is T3, DAT (Homo sapiens, UniProt Q01959).
T3 construct: purchased Eurofins Panlabs Discovery Services
Nature of the series: Off-target screen, 10 µM single dose (Eurofins). The settings on record: read-out: % Binding Inhibition at 10 μM, DAT. The procedure: as §3, §4

The target in a further series is T4, MOP (Homo sapiens, UniProt P35372).
T4 construct: purchased Eurofins Panlabs Discovery Services
Briefly: Off-target screen, 10 µM single dose (Eurofins). The note with it: read-out: % Binding Inhibition at 10 μM, MOP. The protocol: as §3, §4

In a further series the target is T5, 5-HT2A (Homo sapiens, UniProt P28223).
T5 construct: purchased Eurofins Panlabs Discovery Services
Briefly: Off-target screen, 10 µM single dose (Eurofins). The note with it: read-out: % Binding Inhibition at 10 μM, 5-HT2A. The procedure: as §3, §4

In another series the target is T6, CB2 (Homo sapiens, UniProt P34972).
T6 construct: purchased Eurofins Panlabs Discovery Services
Briefly: Off-target screen, 10 µM single dose (Eurofins). The settings on record: read-out: % Binding Inhibition at 10 μM, CB2. The protocol:
as §3, §4

The target in another series is T7, NET (Homo sapiens, UniProt P23975).
T7 construct: purchased Eurofins Panlabs Discovery Services
Briefly: Off-target screen, 10 µM single dose (Eurofins). The settings on record: read-out: % Binding Inhibition at 10 μM, NET. The protocol:
as §3, §4

The target of the next series is T8, 5-HT2B (Homo sapiens, UniProt P41595).
T8 construct: purchased Eurofins Panlabs Discovery Services
Briefly: Off-target screen, 10 µM single dose (Eurofins). The note with it: read-out: % Binding Inhibition at 10 μM, 5-HT2B. The procedure:
as §3, §4

Another series has as its target T9, D2L (Homo sapiens, UniProt P14416).
T9 construct: purchased Eurofins Panlabs Discovery Services
Briefly: Off-target screen, 10 µM single dose (Eurofins). The settings on record: read-out: % Binding Inhibition at 10 μM, D2L. The protocol: as §3, §4

For a further series, the target named is T10, nAChR (α4/β2) (Homo sapiens, UniProt P17787+P43681).
T10 construct: purchased Eurofins Panlabs Discovery Services
Briefly: Off-target screen, 10 µM single dose (Eurofins). The settings on record: read-out: % Binding Inhibition at 10 μM, nAChR (α4/β2). The procedure:
as §3, §4

The target in another series is T11, CB1 (Homo sapiens, UniProt P21554).
T11 construct: purchased Eurofins Panlabs Discovery Services
Nature of the series: Off-target screen, 10 µM single dose (Eurofins). The note with it: read-out: % Binding Inhibition at 10 μM, CB1. The procedure:
as §3, §4

Another series deals with T12, M1 (Homo sapiens, UniProt P11229).
T12 construct: purchased Eurofins Panlabs Discovery Services
Briefly: Off-target screen, 10 µM single dose (Eurofins). The settings on record: read-out: % Binding Inhibition at 10 μM, M1. The procedure:
as §3, §4

Another series concerns the target T13, D1 (Homo sapiens, UniProt P21728).
T13 construct: purchased Eurofins Panlabs Discovery Services
Nature of the series: Off-target screen, 10 µM single dose (Eurofins). The settings on record: read-out: % Binding Inhibition at 10 μM, D1. The procedure: as §3, §4

The nature of series [2]: Lipophilicity (logD at pH 7.4) by gradient HPLC. Type of series: physicochemical. The settings on record: gradient HPLC retention correlated with standard compounds; pH 7.4, gradient HPLC; read-out: logD7.4. The source says:
Partition coefficient values (logD) were estimated at pH 7.4 by correlating chromatographic retention properties against the characteristics of a series of standard compounds with known partition coefficient values. The method employed a gradient HPLC based on a previously published method.

Another series has as its target T14, rat TSPO (Rattus norvegicus, UniProt P16257).
T14 construct: Heart of male Wistar derived rats weighing 175 ± 25 g are used to prepare peripheral benzodiazepine membrane receptors [TSPO]; tissue Eurofins Panlabs Discovery Services assay #226700; host or cells: rat heart (male Wistar derived)
Briefly: Competitive binding to rat TSPO vs [3H]PK 11195 (Eurofins assay #226700, rat heart membranes). The settings on record: vs [3H]PK 11195, result in words. The procedure:
as §3
Supplementary Figure 12 Dose-response curves and binding affinities of DPA-813 and DPA-814 showing competitive binding to rat TSPO vs [^3H]PK 11195. Method from Eurofins: Heart of male Wistar derived rats weighing 175 ± 25 g are used to prepare peripheral benzodiazepine membrane receptors [TSPO] in modified Tris-HCl buffer pH 7.5. A 0.25 mg aliquot is incubated with 0.3 nM [^3H]PK 11195 for 15 minutes at 25 °C. Non-specific binding is estimated in the presence of 100 μM Dipyridamole. Membranes are filtered and washed, the filters are then counted to determine [^3H]PK 11195 specifically bound.

Series [3] deals with T15, WT human TSPO (Homo sapiens, UniProt P30536, T147A).
T15 construct: expressed in transfected cells
Nature of the series: Competition radioligand binding vs [3H]PK 11195, membranes of transfected HEK-293T cells (WT TSPO). The settings on record: DPA-813 vs DPA-713; DPA-814 vs DPA-714. The protocol: as §3
(§5) In vitro binding affinities (Ki) for human TSPO were initially assessed using a competition radioligand assay against [^3H]PK 11195 in our well-characterised assay using membranes isolated from transfected HEK-293T cells overexpressing either WT or A147T TSPO [32]. This structure-activity relationship study will be reported in a separate publication. […] Data for DPA-713 and DPA-714 are included for comparison.

For series [4], the target named is T16, WT human TSPO (Homo sapiens, UniProt P30536).
T16 construct: expressed in transfected cells
Described as above. The settings on record: vs [3H]PK 11195 (10 nM), HEK-293T membranes, mean ± SEM; read-out: Ki WT hTSPO. The protocol:
as §3, §5

A further series addresses T17, A147T human TSPO (Homo sapiens, UniProt P30536).
T17 construct: expressed in transfected cells
Briefly: Competition radioligand binding vs [3H]PK 11195, membranes of transfected HEK-293T cells (A147T TSPO). The note with it: for increase in affinity to A147T TSPO versus parent compound: DPA-813 vs DPA-713, DPA-814 vs DPA-714; for Ki: vs [3H]PK 11195 (10 nM), HEK-293T membranes, mean ± SEM, read-out: Ki A147T hTSPO. The procedure: as §3, §5

For the next series, the target named is T18, MAO-B (Homo sapiens, UniProt P27338).
T18 construct: purchased Eurofins Panlabs Discovery Services
Nature of the series: Off-target screen, 10 µM single dose (Eurofins), enzymatic functional readout. Type of series: biochemical. The settings on record: n = 2, read-out: % Binding Inhibition at 10 μM, MAO-B. The protocol:
as §1, §2

The subject of a further series is A147T TSPO. Further details: method as in PMID 30900397. The settings on record: cited from earlier work.

T17 sequence (P30536 whole entry, stated change not applied): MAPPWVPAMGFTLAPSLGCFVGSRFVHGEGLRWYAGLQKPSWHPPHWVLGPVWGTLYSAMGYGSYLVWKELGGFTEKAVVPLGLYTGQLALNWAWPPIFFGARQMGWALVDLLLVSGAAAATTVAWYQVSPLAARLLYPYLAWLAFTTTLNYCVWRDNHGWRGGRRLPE
T1 sequence (P31645 whole entry): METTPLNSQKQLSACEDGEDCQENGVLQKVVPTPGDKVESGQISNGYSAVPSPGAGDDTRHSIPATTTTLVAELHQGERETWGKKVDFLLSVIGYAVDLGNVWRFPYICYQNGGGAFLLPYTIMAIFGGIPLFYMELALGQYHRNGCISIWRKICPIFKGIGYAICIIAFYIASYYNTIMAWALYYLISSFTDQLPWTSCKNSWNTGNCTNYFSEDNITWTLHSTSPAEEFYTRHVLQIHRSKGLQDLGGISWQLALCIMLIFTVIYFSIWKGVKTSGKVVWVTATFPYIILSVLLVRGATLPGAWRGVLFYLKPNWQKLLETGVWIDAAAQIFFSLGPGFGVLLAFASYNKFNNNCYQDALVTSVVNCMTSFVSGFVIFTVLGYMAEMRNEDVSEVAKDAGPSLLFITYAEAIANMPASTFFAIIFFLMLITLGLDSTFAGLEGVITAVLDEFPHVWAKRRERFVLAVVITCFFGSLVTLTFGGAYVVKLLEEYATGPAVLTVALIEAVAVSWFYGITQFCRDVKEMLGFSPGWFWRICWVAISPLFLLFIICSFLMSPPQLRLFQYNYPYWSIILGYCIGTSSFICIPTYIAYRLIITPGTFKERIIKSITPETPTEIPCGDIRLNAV
T7 sequence (P23975 whole entry): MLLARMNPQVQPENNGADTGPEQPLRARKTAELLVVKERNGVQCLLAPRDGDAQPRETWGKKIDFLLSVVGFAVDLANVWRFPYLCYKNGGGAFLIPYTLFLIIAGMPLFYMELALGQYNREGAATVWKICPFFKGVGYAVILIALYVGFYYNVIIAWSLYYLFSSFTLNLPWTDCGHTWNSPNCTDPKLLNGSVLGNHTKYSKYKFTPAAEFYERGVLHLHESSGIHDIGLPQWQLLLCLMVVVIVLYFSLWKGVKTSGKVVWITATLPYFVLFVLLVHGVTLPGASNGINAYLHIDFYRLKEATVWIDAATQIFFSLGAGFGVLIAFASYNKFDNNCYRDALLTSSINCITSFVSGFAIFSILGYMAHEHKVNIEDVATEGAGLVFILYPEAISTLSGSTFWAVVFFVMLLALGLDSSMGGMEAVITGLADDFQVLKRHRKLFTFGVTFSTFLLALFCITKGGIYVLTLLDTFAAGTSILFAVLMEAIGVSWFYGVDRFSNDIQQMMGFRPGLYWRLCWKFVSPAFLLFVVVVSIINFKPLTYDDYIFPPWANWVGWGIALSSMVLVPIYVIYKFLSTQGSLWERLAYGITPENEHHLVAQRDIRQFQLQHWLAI
T6 sequence (P34972 whole entry): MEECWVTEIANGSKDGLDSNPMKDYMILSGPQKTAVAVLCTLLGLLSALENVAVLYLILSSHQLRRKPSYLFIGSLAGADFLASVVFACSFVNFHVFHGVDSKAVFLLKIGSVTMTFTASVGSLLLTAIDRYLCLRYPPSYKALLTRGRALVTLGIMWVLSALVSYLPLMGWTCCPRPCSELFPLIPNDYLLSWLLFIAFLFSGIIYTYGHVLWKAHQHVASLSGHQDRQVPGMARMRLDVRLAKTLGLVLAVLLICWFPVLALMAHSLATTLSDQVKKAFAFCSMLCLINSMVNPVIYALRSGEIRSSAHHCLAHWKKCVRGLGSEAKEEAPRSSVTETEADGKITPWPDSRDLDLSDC
T16 sequence (P30536 whole entry T147A): as the sequence (P30536 whole entry, stated change not applied) above, with T147A counted along it
T15 sequence (P30536 whole entry T147A): as the sequence (P30536 whole entry, stated change not applied) above, with T147A counted along it
T4 sequence (P35372 whole entry): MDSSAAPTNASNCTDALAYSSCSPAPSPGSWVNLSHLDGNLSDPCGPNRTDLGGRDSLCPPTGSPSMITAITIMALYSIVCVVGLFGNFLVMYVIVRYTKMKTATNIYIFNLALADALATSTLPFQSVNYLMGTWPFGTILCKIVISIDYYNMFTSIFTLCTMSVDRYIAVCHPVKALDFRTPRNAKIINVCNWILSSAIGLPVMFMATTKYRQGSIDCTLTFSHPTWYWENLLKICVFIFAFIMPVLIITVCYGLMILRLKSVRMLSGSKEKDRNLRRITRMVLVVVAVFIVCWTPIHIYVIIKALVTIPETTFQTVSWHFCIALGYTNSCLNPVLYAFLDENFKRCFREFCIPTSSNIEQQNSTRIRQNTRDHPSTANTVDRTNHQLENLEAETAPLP
T9 sequence (P14416 whole entry): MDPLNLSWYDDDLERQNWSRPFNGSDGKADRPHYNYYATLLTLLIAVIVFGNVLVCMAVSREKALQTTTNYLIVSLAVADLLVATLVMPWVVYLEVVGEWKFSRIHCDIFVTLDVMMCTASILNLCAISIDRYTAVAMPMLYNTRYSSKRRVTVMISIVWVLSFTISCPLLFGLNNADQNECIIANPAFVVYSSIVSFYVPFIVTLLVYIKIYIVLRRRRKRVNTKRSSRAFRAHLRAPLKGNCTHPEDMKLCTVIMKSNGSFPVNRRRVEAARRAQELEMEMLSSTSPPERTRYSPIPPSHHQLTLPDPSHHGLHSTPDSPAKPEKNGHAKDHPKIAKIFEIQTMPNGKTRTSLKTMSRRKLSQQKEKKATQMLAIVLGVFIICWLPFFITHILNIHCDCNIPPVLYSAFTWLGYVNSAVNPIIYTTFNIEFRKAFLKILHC
T5 sequence (P28223 whole entry): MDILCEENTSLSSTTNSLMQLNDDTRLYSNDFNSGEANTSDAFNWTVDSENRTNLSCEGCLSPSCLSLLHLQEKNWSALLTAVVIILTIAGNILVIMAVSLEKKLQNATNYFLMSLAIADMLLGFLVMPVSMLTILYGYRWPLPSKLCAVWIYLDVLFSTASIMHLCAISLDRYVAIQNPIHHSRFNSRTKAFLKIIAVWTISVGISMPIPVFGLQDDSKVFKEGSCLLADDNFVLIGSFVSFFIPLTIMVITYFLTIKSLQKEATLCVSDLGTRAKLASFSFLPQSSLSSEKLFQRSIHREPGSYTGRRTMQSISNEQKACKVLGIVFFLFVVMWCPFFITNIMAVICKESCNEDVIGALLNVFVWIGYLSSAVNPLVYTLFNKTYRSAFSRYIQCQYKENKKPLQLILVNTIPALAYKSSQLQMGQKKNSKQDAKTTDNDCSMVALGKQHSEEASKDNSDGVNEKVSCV
T11 sequence (P21554 whole entry): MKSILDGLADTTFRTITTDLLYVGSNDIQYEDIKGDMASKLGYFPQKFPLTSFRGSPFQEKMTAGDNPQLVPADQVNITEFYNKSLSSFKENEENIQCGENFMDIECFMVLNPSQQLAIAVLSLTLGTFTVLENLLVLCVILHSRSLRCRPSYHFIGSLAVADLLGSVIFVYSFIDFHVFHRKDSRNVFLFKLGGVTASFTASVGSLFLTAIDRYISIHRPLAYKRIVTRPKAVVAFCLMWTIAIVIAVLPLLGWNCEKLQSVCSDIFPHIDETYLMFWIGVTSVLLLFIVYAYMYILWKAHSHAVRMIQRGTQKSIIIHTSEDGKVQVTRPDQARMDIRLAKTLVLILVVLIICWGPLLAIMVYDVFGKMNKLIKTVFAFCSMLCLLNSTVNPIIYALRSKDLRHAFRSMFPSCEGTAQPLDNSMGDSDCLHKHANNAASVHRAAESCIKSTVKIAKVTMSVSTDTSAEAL
T3 sequence (Q01959 whole entry): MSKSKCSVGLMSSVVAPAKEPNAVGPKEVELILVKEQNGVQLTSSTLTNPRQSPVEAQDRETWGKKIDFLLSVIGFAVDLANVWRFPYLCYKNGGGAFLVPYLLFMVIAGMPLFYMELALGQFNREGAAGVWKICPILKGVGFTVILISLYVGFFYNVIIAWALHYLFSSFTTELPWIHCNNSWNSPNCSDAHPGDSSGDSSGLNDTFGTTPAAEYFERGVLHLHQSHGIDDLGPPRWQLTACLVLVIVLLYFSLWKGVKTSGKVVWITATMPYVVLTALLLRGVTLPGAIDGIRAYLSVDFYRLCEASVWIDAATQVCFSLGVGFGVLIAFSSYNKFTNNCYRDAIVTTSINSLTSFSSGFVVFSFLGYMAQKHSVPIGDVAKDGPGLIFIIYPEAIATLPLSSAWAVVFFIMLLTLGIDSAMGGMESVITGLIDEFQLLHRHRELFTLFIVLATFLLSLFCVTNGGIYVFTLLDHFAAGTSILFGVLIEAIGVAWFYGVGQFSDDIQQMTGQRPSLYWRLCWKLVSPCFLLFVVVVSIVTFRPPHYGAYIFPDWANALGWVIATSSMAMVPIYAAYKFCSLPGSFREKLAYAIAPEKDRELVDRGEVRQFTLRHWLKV
T18 sequence (P27338 whole entry): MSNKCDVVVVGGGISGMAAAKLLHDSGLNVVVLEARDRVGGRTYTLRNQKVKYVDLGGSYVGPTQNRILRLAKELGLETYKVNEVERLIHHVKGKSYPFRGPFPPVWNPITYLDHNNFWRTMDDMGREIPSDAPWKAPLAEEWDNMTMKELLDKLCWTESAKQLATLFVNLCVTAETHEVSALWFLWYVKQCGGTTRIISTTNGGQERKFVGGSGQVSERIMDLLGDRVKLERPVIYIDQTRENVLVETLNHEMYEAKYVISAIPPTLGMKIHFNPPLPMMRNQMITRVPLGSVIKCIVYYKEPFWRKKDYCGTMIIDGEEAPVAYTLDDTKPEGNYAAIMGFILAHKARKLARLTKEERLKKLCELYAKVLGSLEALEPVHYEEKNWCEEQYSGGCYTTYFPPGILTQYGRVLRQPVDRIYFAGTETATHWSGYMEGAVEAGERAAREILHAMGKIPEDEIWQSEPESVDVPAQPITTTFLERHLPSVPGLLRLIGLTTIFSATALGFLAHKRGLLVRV

For the molecule `COc1ccc(-c2nn3c(C)cc(C)nc3c2CC(=O)N(C)c2ccccc2)cc1` [DPA-813], in series [1], the “% Binding Inhibition at 10 μM, Central Benzodiazepine Receptor” value came out at 51%. Moreover, the inhibition at 10 µM on SERT is 4%; on β2 Adrenergic receptor, -1%; at DAT, 10%; at MOP it was 15%; on 5-HT2A, 1%; at CB2 it was -16%. Besides, the inhibition at 10 µM is 3% on NET; 25% at 5-HT2B; 10% at D2L; 4% on nAChR (α4/β2); 4% on CB1; -13% at M1. The inhibition at 10 µM at D1 amounted to 13%; at MAO-B, 10%. Further, the chromatographic logD in [2] amounted to 3.6. For the same molecule, on rat TSPO, the “binding affinity to rat TSPO” value is recorded as “subnanomolar”. Further, the “increase in affinity to WT TSPO versus parent compound” value on WT human TSPO [3] was ~ 3 fold. Moreover, the Ki on WT human TSPO [4] is 6.2 ± 1.9 nM; on A147T human TSPO, 3.1 ± 0.9 nM. Moreover, at A147T human TSPO, the “increase in affinity to A147T TSPO versus parent compound” value was ~ 32 fold.

For the molecule `Cc1cc(C)n2nc(-c3ccc(OCCF)cc3)c(CC(=O)N(C)c3ccccc3)c2n1` [DPA-814], in [1], the “% Binding Inhibition at 10 μM, Central Benzodiazepine Receptor” value amounted to 18%. Moreover, the inhibition at 10 µM is 2% on SERT; 0% on β2 Adrenergic receptor; 7% on DAT; 24% on MOP; 4% on 5-HT2A; -22% on CB2. Also, the inhibition at 10 µM at NET is 4%; on 5-HT2B, 30%; at D2L, 11%; at nAChR (α4/β2) it was 1%; on CB1, -6%; at M1, -14%. The figures for the inhibition at 10 µM on D1 and on MAO-B were 24% and 47%, respectively. Besides, the chromatographic logD in series [2] was 3.7. For the same molecule, on rat TSPO, the “binding affinity to rat TSPO” value is recorded as “subnanomolar”. The “increase in affinity to WT TSPO versus parent compound” value on WT human TSPO [3] is recorded as 3 fold. Besides, the figures for the Ki at WT human TSPO [4] and on A147T human TSPO were 7.3 ± 0.5 nM and 5.7 ± 1.8 nM, respectively. At A147T human TSPO, the “increase in affinity to A147T TSPO versus parent compound” value was 46 fold.

For `CCN(CC)C(=O)[C@H]1CCCc2c1c1c(OC)cccc1n2CC[18F]` [[^18F]GE180], in the series on A147T TSPO, the “reduction in affinity for A147T TSPO in vitro” value is listed as 5 fold.

The term Ki denotes a dissociation constant, usually derived from enzyme kinetics or from competition with a known ligand.
